Test results as given in paper PMC9652372, “Glycolytic flux control by drugging phosphoglycolate phosphatase” (Nature Communications, 2022).
Converted amounts (≈) assume the structure as drawn. “And” between values parts separate entries of the source, which are not always exact repeats. Equal values may be shown once. Read-outs that look alike come from different tables or passages of the source.

Columns and labels:
murine PDXP/PGP hybrid = biological target: T1, murine PDXP/PGP hybrid (Mus musculus, UniProt P60487+Q8CHP8); test: PG dephosphorylation by PDXP/PGP hybrid protein; type: biochemical
T1 construct: consisting of the PGP cap domain (amino acids 114–233) fused to the PDXP core domain; His6 (N, cleaved yes); made in house; host or cells: Escherichia coli BL21 (DE3), pETM11
T1 sequence (P60487 1-100): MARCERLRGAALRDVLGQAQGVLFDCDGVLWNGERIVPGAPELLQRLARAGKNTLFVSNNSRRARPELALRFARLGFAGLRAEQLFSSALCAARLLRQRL
T1 sequence (Q8CHP8 114-233): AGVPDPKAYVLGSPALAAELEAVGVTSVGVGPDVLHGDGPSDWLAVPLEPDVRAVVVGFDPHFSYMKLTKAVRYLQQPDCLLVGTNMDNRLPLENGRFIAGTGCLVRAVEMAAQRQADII
T1 sequence (P60487 208-292): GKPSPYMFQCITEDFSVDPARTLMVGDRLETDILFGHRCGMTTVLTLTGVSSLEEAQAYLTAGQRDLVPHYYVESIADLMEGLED
Procedure: After centrifugation, cells were resuspended in TNM-2 (100 mM triethanolamine, 500 mM NaCl, 20 mM imidazole, 5 mM MgCl2; pH 7.4). Cleared supernatants were loaded on a HisTrap HP nickel sepharose column in TNM-3 (50 mM triethanolamine, 500 mM NaCl, 20 mM imidazole, 5 mM MgCl2; pH 7.4), and His6-tagged proteins were eluted using a linear gradient of up to 50% TNM-4 (50 mM triethanolamine; 250 mM NaCl; 500 mM imidazole; 5 mM MgCl2; pH 7.4). Peak fractions were pooled, the His6-tag was cleaved, and untagged PDXP or PDXP/PGP was isolated, concentrated and further purified by size exclusion chromatography in TNM-5 (50 mM triethanolamine; 250 mM NaCl; 5 mM MgCl2; pH 7.4). […] Data were analyzed with GraphPad Prism 7.04.

PGP^WT = biological target: T2, PGP^WT (Mus musculus, UniProt Q8CHP8); test: Differential scanning fluorimetry (Thermofluor); type: binding
T2 construct: His6 (N, cleaved yes); made in house; host or cells: Escherichia coli BL21 (DE3), pETM11, co-expressed with groES-groEL-tig
T2 sequence (Q8CHP8 1-321): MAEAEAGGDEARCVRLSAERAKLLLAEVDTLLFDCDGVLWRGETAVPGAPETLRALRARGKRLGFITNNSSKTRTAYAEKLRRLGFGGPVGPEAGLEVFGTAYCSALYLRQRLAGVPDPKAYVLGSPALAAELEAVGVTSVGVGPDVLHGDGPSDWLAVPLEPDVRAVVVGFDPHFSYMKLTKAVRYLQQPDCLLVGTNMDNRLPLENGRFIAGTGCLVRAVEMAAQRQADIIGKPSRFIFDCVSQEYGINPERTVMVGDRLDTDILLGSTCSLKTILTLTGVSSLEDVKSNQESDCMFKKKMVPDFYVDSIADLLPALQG

physchem = details: organic solvent or mixture
murine PGP [1] = biological target: T3, murine PGP (Mus musculus, UniProt Q8CHP8); test: biochemical
T3 sequence (Q8CHP8 1-321): T2 sequence (Q8CHP8 1-321)

murine PDXP = biological target: T4, murine PDXP (Mus musculus, UniProt P60487); test: PDXP activity towards pyridoxal 5'-phosphate (PLP); details: phosphatase PDXP; species M.m.; substrate PLP; n.s. = no significant inhibition detectable
T4 sequence (P60487 1-292): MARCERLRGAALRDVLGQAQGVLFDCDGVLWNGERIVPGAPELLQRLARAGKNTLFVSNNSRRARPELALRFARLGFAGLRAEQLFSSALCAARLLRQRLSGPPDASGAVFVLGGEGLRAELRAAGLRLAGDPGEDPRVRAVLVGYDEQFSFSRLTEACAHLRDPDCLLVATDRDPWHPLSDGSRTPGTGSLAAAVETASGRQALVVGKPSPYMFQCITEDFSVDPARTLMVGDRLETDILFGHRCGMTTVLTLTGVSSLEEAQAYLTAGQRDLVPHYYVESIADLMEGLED

murine PGP [2] = biological target: T3, murine PGP; test: IC50 determination, murine PGP, pNPP dephosphorylation
PGP = biological target: T5, PGP (Mus musculus, UniProt Q8CHP8); test: Steady state kinetics of PG dephosphorylation in presence of CP1-3
T5 sequence (Q8CHP8 1-321): T2 sequence (Q8CHP8 1-321)

[3] = PG dephosphorylation, increasing CP concentrations

For `COc1ccc(C(=O)Nc2ccc(Cc3ccc(NC(=O)c4ccc(OC)c(OC)c4)c(C(=O)O)c3)cc2C(=O)O)cc1OC` [CP2], the remaining activity at 64 µM (murine PDXP/PGP hybrid; activity, control = 100, CP log[M] -4.19382) was 17.6%, the remaining activity at 32 µM (murine PDXP/PGP hybrid; activity, control = 100, CP log[M] -4.49485) was 16% and the remaining activity at 16 µM (murine PDXP/PGP hybrid; activity, control = 100, CP log[M] -4.79588) was 23.7%. It also gave a remaining activity at 4 µM (murine PDXP/PGP hybrid; activity, control = 100, CP log[M] -5.39794) of 48.1%, a remaining activity at 2 µM (murine PDXP/PGP hybrid; activity, control = 100, CP log[M] -5.69897) of 55.7% and a remaining activity at 1 µM (murine PDXP/PGP hybrid; activity, control = 100, CP log[M] -6) of 80.9%. The remaining activity at 0.5 µM (murine PDXP/PGP hybrid; activity, control = 100, CP log[M] -6.30103) was 90.8%, the remaining activity at […] (murine PDXP/PGP hybrid; activity, control = 100, CP log[M] -6.60206) was 93.9% and the remaining activity at 0.125 µM (murine PDXP/PGP hybrid; activity, control = 100, CP log[M] -6.90309) was 94.7%. The remaining activity at 0.0625 µM (murine PDXP/PGP hybrid; activity, control = 100, CP log[M] -7.20412) was 87.8%, the remaining activity at 0.015625 µM (murine PDXP/PGP hybrid; activity, control = 100, CP log[M] -7.80618) was 101% and the IC50 (murine PDXP/PGP hybrid; phosphatase PDXP/PGP, species M.m., substrate PG) was 2570 ± 230 nM. The TM (PGP^WT; Inhibitor 0.146484 µM) was 66.4 °C, the TM (PGP^WT; Inhibitor 0.292969 µM) was 66.5 °C and the TM (PGP^WT; Inhibitor 0.585938 µM) was 66.5 °C. It also gave a TM (PGP^WT; Inhibitor 1.17188 µM) of 66.5 °C, a TM (PGP^WT; Inhibitor 2.34375 µM) of 66.6 °C and a TM (PGP^WT; Inhibitor 4.6875 µM) of 66.8 °C. It also gave a TM (PGP^WT; Inhibitor 9.375 µM) of 67.7 °C, a TM (PGP^WT; Inhibitor 18.75 µM) of 68.2 °C and a TM (PGP^WT; Inhibitor 37.5 µM) of 68.6 °C. For the same molecule, the TM (PGP^WT; Inhibitor 75 µM) was 68.6 °C, the TM (PGP^WT; Inhibitor 150 µM) was 67.9 °C and the “increase in the maximal PGP melting temperature” value (PGP^WT; from 66.4 °C (control conditions)) was 2.2 °. For the same molecule, the solubility (physchem) was 15 mM (≈ 9220 µg/mL), the IC50 (murine PGP [1]) was 1580 nM and 700 nM and the IC50 (murine PDXP) was “n.s”. The IC50 (murine PGP [2]) was 4760 ± 1190 nM, the remaining activity at 50 µM (murine PGP [2]; read-out: M.m PGP on pNPP, activity, control = 100.00, CP log[M] -4.30103) was 28.4% and the remaining activity at 25 µM (murine PGP [2]; read-out: M.m PGP on pNPP, activity, control = 100.00, CP log[M] -4.60206) was 32.2%. The remaining activity at 10 µM (murine PGP [2]; read-out: M.m PGP on pNPP, activity, control = 100.00, CP log[M] -5) was 43.5%, the remaining activity at 5 µM (murine PGP [2]; read-out: M.m PGP on pNPP, activity, control = 100.00, CP log[M] -5.30103) was 58.6% and the remaining activity at […] (murine PGP [2]; read-out: M.m PGP on pNPP, activity, control = 100.00, CP log[M] -5.60206) was 63.7%. For the same molecule, the remaining activity at 1 µM (murine PGP [2]; read-out: M.m PGP on pNPP, activity, control = 100.00, CP log[M] -6) was 94.7%, the remaining activity at 0.5 µM (murine PGP [2]; read-out: M.m PGP on pNPP, activity, control = 100.00, CP log[M] -6.30103) was 85.5% and the remaining activity at […] (murine PGP [2]; read-out: M.m PGP on pNPP, activity, control = 100.00, CP log[M] -6.60206) was 93.2%. It also gave a remaining activity at 0.125 µM (murine PGP [2]; read-out: M.m PGP on pNPP, activity, control = 100.00, CP log[M] -6.90309) of 91.7%, a remaining activity at 0.0625 µM (murine PGP [2]; read-out: M.m PGP on pNPP, activity, control = 100.00, CP log[M] -7.20412) of 105% and a remaining activity at 0.03125 µM (murine PGP [2]; read-out: M.m PGP on pNPP, activity, control = 100.00, CP log[M] -7.50515) of 94%. For the same molecule, the “mode of PGP inhibition” value (PGP) was “competitive inhibitors”, the PGP activity (PGP; 1 µM CP2, PG 25 µM) was 1.021 µmol Pi/min/mg and 0.7809 µmol Pi/min/mg and 1.201 µmol Pi/min/mg and the PGP activity (PGP; 1 µM CP2, PG 50 µM) was 2.343 µmol Pi/min/mg and 1.682 µmol Pi/min/mg and 2.403 µmol Pi/min/mg. The PGP activity (PGP; 1 µM CP2, PG 100 µM) was 4.865 µmol Pi/min/mg and 4.265 µmol Pi/min/mg and 4.986 µmol Pi/min/mg, the PGP activity (PGP; 1 µM CP2, PG 200 µM) was 9.31 µmol Pi/min/mg and 8.409 µmol Pi/min/mg and 9.7309 µmol Pi/min/mg and the PGP activity (PGP; 1 µM CP2, PG 300 µM) was 14.9605 µmol Pi/min/mg and 10.9951 µmol Pi/min/mg and 14.0593 µmol Pi/min/mg. For the same molecule, the PGP activity (PGP; 1 µM CP2, PG 400 µM) was 18.0247 µmol Pi/min/mg and 16.763 µmol Pi/min/mg and 17.3037 µmol Pi/min/mg, the PGP activity (PGP; 1 µM CP2, PG 500 µM) was 19.8272 µmol Pi/min/mg and 20.5481 µmol Pi/min/mg and 19.4667 µmol Pi/min/mg and the PGP activity (PGP; 1 µM CP2, PG 600 µM) was 21.8099 µmol Pi/min/mg and 21.6296 µmol Pi/min/mg. For the same molecule, the PGP activity (PGP; 1 µM CP2, PG 700 µM) was 22.7111 µmol Pi/min/mg and 24.1531 µmol Pi/min/mg and 23.6123 µmol Pi/min/mg, the PGP activity (PGP; 1 µM CP2, PG 800 µM) was 21.8099 µmol Pi/min/mg and 23.0716 µmol Pi/min/mg and 24.8741 µmol Pi/min/mg and the PGP activity (PGP; 2 µM CP2, PG 25 µM) was 0.7809 µmol Pi/min/mg and 0.7208 µmol Pi/min/mg and 0.9611 µmol Pi/min/mg. The PGP activity (PGP; 2 µM CP2, PG 50 µM) was 1.081 µmol Pi/min/mg and 1.682 µmol Pi/min/mg and 1.982 µmol Pi/min/mg, the PGP activity (PGP; 2 µM CP2, PG 100 µM) was 2.9433 µmol Pi/min/mg and 3.424 µmol Pi/min/mg and 3.784 µmol Pi/min/mg and the PGP activity (PGP; 2 µM CP2, PG 200 µM) was 6.247 µmol Pi/min/mg and 7.088 µmol Pi/min/mg and 7.028 µmol Pi/min/mg. The PGP activity (PGP; 2 µM CP2, PG 300 µM) was 7.39 µmol Pi/min/mg and 11.3555 µmol Pi/min/mg and 12.0765 µmol Pi/min/mg, the PGP activity (PGP; 2 µM CP2, PG 400 µM) was 12.7975 µmol Pi/min/mg and 13.6988 µmol Pi/min/mg and 14.4198 µmol Pi/min/mg and the PGP activity (PGP; 2 µM CP2, PG 500 µM) was 16.763 µmol Pi/min/mg and 16.4025 µmol Pi/min/mg. The PGP activity (PGP; 2 µM CP2, PG 600 µM) was 17.8444 µmol Pi/min/mg and 17.3037 µmol Pi/min/mg and 17.6642 µmol Pi/min/mg, the PGP activity (PGP; 2 µM CP2, PG 700 µM) was 19.2864 µmol Pi/min/mg and 19.1062 µmol Pi/min/mg and the PGP activity (PGP; 2 µM CP2, PG 800 µM) was 20.3679 µmol Pi/min/mg and 20.7284 µmol Pi/min/mg and 19.2864 µmol Pi/min/mg. For the same molecule, the PGP activity (PGP; 4 µM CP2, PG 50 µM) was 1.502 µmol Pi/min/mg and 0.7809 µmol Pi/min/mg and 1.321 µmol Pi/min/mg, the PGP activity (PGP; 4 µM CP2, PG 100 µM) was 2.523 µmol Pi/min/mg and 1.742 µmol Pi/min/mg and 2.222 µmol Pi/min/mg and the PGP activity (PGP; 4 µM CP2, PG 200 µM) was 4.745 µmol Pi/min/mg and 4.565 µmol Pi/min/mg. For the same molecule, the PGP activity (PGP; 4 µM CP2, PG 300 µM) was 8.4716 µmol Pi/min/mg and 6.669 µmol Pi/min/mg and 5.7679 µmol Pi/min/mg, the PGP activity (PGP; 4 µM CP2, PG 400 µM) was 10.8148 µmol Pi/min/mg and 9.012 µmol Pi/min/mg and the PGP activity (PGP; 4 µM CP2, PG 500 µM) was 11.1753 µmol Pi/min/mg and 11.8963 µmol Pi/min/mg and 10.8148 µmol Pi/min/mg. The PGP activity (PGP; 4 µM CP2, PG 600 µM) was 12.437 µmol Pi/min/mg and 12.9778 µmol Pi/min/mg, the PGP activity (PGP; 4 µM CP2, PG 700 µM) was 13.5185 µmol Pi/min/mg and 14.0593 µmol Pi/min/mg and 12.9778 µmol Pi/min/mg and the PGP activity (PGP; 4 µM CP2, PG 800 µM) was 13.3383 µmol Pi/min/mg and 13.879 µmol Pi/min/mg and 14.6 µmol Pi/min/mg. The vmax (PGP; CP 1.0 µM) was 49.7 ± 4.0 µmol/min/mg, the vmax (PGP; CP 2.0 µM) was 51.9 ± 5.9 µmol/min/mg and the vmax (PGP; CP 4.0 µM) was 36.9 ± 4.8 µmol/min/mg. The “effect on vmax (reduction)” value (PGP; [3]) was “without affecting vmax” and the “increase of KM” value (PGP; [3]) was ~ 3 fold.
